Among the data in patent US9751881B2, “Inhibitors of the renal outer medullary potassium channel” (Merck Sharp & Dohme Corp., priority 2013, dated 2017) are IC50 values, retold here.

What is called IC50 is the concentration at which inhibition is half-maximal.

Structures can show the parent of a compound that is named as a salt.

This experiment deals with hROMK (hKir1.1) (Homo sapiens (Human), UniProt P48048). Put plainly: Thallium Flux Assay (ROMK channel functional thallium flux, FLIPR-Tetra). The class given is cell-based. The note with it: HEK293 cells stably expressing hROMK (hKir1.1); unit not given in Table 4 (IC50 potencies less than 1 μM); read-out: ROMK TI IC50. The procedure: Cell Culture Conditions—HEK293 cells stably expressing hROMK (hKir1.1) were grown at 37° C. in a 10% CO2 humidified incubator in complete growth media: Dulbecco's Modified Eagle Medium supplemented with non-essential amino acids, Penicillin/Streptomycin/Glutamine, G418 and FBS. At >80% confluency, the media was aspirated from the flask and rinsed with 10 mL calcium/magnesium-free PBS. […] To dislodge the cell, the side of the flask was gently banged with one's hand. The cells completely titrated and then the cells were transferred to 25 mL complete media, centrifuged at 1,500 rpm for 6 min followed by resuspension in complete growth media and determine cell concentration. […] Under ideal growth conditions and appropriate tissue culture practices, this cell line is stable for 40-45 passages.
hROMK (hKir1.1), sequence (P48048 whole entry): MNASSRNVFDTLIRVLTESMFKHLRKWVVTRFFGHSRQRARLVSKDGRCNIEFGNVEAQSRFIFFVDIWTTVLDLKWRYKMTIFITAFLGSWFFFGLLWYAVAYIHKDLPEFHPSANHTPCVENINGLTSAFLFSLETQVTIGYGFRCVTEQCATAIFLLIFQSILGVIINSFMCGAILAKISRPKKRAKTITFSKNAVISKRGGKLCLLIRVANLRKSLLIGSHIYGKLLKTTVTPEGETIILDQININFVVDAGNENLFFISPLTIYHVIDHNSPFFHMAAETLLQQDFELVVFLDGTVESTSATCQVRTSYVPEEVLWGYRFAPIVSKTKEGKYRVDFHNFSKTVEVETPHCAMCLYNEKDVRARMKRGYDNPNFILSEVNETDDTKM
FluxOR Kit Components (Invitrogen F10017)
• FluxOR™ Reagent (Component A) • FluxOR™ Assay Buffer (Component B)—10× Concentrate • PowerLoad™ Concentrate (Component C)—100× Concentrate • Probenecid (Component D)—Lyophilized sample is kept at −20° C. Water soluble, 100× after solubilization in 1 mL water. […] Store at 4° C. • Thallium sulfate (Tl2SO4) Concentrate (Component G)—50 mM in water. […] Can be stored at room temperature • Stimulant Buffer (prepared at 5× final concentration in 1× FluxOR™Chloride-Free Buffer): 7.5 mM thallium sulfate and 0.75 mM potassium sulfate (to give a final assay concentration of 3 mM Thallium/0.3 mM potassium). Store at 4° C. when not in use. If kept sterile, this solution is good for months.
• 1. Seed HEK-hKir1.1 cells (50 μl at 20,000 cells/well) in 384-well PDL coated Microplates • 2. Allow cells to adhere overnight in humidified 37° C./10% CO2 incubator • 3. Completely remove cell growth media from microplate and replace with 25 μl loading buffer • 4. Incubate Microplate at room temperature, protected form light, for 90 min • 5. Remove loading buffer and replace with 25 μl 1× Assay Buffer±test compound. • 6. Incubate microplate at room temperature, protected from light, for 30 min • 7. […] Excitation=400 nm, Emission=460 & 580 nm. Collect data for ˜10 min.
Data Calculation—The fluorescence intensity of wells containing 3 μM of a standard control ROMK inhibitor of the present invention was used to define the ROMK-sensitive component of thallium flux. Fluorescence in the presence of test compounds was normalized to control values to provide % fluorescence change.

Regarding `Cc1c([C@@H](O)CN2CCC3(CCCN(c4ncc(-n5cnnn5)cn4)C3)CC2)ccc2c1COC2=O` [Example 43, (R)-5-(2-(2-(5-(1H-tetrazol-1-yl)pyrimidin-2-yl)-2,9-diazaspiro[5.5]undecan-9-yl)-1-hydroxyethyl)-4-methylisobenzofuran-1(3H)-one], the 50% inhibitory concentration (IC50) came out at 0.037 µM. On to `Cc1c([C@@H](O)CN2CCC3(CC2)CN(c2ccc(C#N)cn2)C3=O)ccc2c1COC2=O` [Example 44, (R)-6-(7-(2-Hydroxy-2-(4-methyl-1-oxo-1,3-dihydroisobenzofuran-5-yl)ethyl)-1-oxo-2,7-diazaspiro[3.5]nonan-2-yl)nicotinonitrile], for which the half-inhibitory concentration (IC50) was determined as 0.369 µM. Under `Cc1c([C@@H](O)CN2CCC3(CC2)CN(c2ccc(C#N)cn2)C3)ccc2c1COC2=O` [Example 45, (R)-6-(7-(2-Hydroxy-2-(4-methyl-1-oxo-1,3-dihydroisobenzofuran-5-yl)ethyl)-2,7-diazaspiro[3.5]nonan-2-yl)nicotinonitrile] stands 0.104 µM; under `Cc1c([C@@H](O)CN2CCC3(CC2)CN(c2ccc(S(C)(=O)=O)nc2)C3)ccc2c1COC2=O` [Example 46, (R)-5-(1-Hydroxy-2-(2-(6-(methylsulfonyl)pyridin-3-yl)-2,7-diazaspiro[3.5]nonan-7-yl)ethyl)-4-methylisobenzofuran-1(3H)-one], 0.256 µM; under `Cc1c([C@@H](O)CN2CCC3(CC2)CN(c2ccc(S(C)(=O)=O)cn2)C3)ccc2c1COC2=O` [Example 47, (R)-5-(1-Hydroxy-2-(2-(5-(methylsulfonyl)pyridin-2-yl)-2,7-diazaspiro[3.5]nonan-7-yl)ethyl)-4-methylisobenzofuran-1(3H)-one], 0.22 µM. With `Cc1c([C@@H](O)CN2CCC3(CC2)CN(c2ccc(S(C)(=O)=O)nn2)C3)ccc2c1COC2=O` [Example 48, (R)-5-(1-Hydroxy-2-(2-(6-(methylsulfonyl)pyridazin-3-yl)-2,7-diazaspiro[3.5]nonan-7-yl)ethyl)-4-methylisobenzofuran-1(3H)-one], the IC50 worked out at 0.071 µM. In the case of `Cc1c([C@@H](O)CN2CCC3(CC2)CN(c2cnc(S(C)(=O)=O)cn2)C3)ccc2c1COC2=O` [Example 49, (R)-5-(1-Hydroxy-2-(2-(5-(methylsulfonyl)pyrazin-2-yl)-2,7-diazaspiro[3.5]nonan-7-yl)ethyl)-4-methylisobenzofuran-1(3H)-one], the IC50 was 0.118 µM. Turning to `COc1cc(N2CC3(CCN(C[C@H](O)c4ccc5c(c4C)COC5=O)CC3)C2)ncc1C#N` [Example 50, (R)-6-(7-(2-hydroxy-2-(4-methyl-1-oxo-1,3-dihydroisobenzofuran-5-yl)ethyl)-2,7-diazaspiro[3.5]nonan-2-yl)-4-methoxynicotinonitrile], the IC50 was found to be 0.0424 µM. Regarding `C[C@H]1Cc2cc(C(O)CN3CCC4(CC3)CN(c3ccc(C#N)cn3)C4)ccc2C(=O)O1` (stereo partly drawn) [Example 52A, 6-(7-(2-Hydroxy-2-((S)-3-methyl-1-oxoisochroman-6-yl)ethyl)-2,7-diazaspiro[3.5]nonan-2-yl)nicotinonitrile], the 50% inhibitory concentration (IC50) turned out to be 0.0487 µM. With `C[C@@H]1Cc2cc(C(O)CN3CCC4(CC3)CN(c3ccc(C#N)cn3)C4)ccc2C(=O)O1` (stereo partly drawn) [Example 52B, 6-(7-(2-Hydroxy-2-((R)-3-methyl-1-oxoisochroman-6-yl)ethyl)-2,7-diazaspiro[3.5]nonan-2-yl)nicotinonitrile], the half-inhibitory concentration (IC50) came out at 0.0699 µM.

In the case of `Cc1c([C@@H](O)CN2CCC3(CCN(c4ccc(C#N)cn4)CC3)C2)ccc2c1COC2=O` [Example 53, (R)-6-(2-(2-Hydroxy-2-(4-methyl-1-oxo-1,3-dihydroisobenzofuran-5-yl)ethyl)-2,8-diazaspiro[4.5]decan-8-yl)nicotinonitrile], the IC50 was determined as 0.019 µM.

Consider `Cc1c([C@@H](O)CN2CCC3(CCN(c4ncc(-n5cnnn5)cn4)CC3)C2)ccc2c1COC2=O` [Example 54, (R)-5-(2-(8-(5-(1H-tetrazol-1-yl)pyrimidin-2-yl)-2,8-diazaspiro[4.5]decan-2-yl)-1-hydroxyethyl)-4-methylisobenzofuran-1(3H)-one], for which the IC50 turned out to be 0.262 µM.

Regarding `Cc1c([C@@H](O)CN2CCC3(CC2)CCN(c2ccc(S(C)(=O)=O)nc2)C3=O)ccc2c1COC2=O` [Example 55, (R)-8-(2-Hydroxy-2-(4-methyl-1-oxo-1,3-dihydroisobenzofuran-5-yl)ethyl)-2-(6-(methylsulfonyl)pyridin-3-yl)-2,8-diazaspiro[4.5]decan-1-one], the IC50 was 0.0851 µM. The same measure for `Cc1c([C@H](O)CN2CCC3(CC2)CCN(c2ccc(S(C)(=O)=O)cn2)C3)ccc2c1COC2=O` [Example 56, (S)-5-(1-Hydroxy-2-(2-(5-(methylsulfonyl)pyridin-2-yl)-2,8-diazaspiro[4.5]decan-8-yl)ethyl)-4-methylisobenzofuran-1(3H)-one]: 0.341 µM; for `Cc1c([C@@H](O)CN2CCC3(CC2)CCN(c2ccc(S(C)(=O)=O)nn2)C3=O)ccc2c1COC2=O` [Example 57, (R)-8-(2-Hydroxy-2-(4-methyl-1-oxo-1,3-dihydroisobenzofuran-5-yl)ethyl)-2-(6-(methylsulfonyl)pyridazin-3-yl)-2,8-diazaspiro[4.5]decan-1-one]: 0.0592 µM.

Regarding `COc1cc(N2CCC3(CCN(C[C@H](O)c4ccc5c(c4C)COC5=O)CC3)C2=O)ncc1C#N` [Example 58, (R)-6-(8-(2-Hydroxy-2-(4-methyl-1-oxo-1,3-dihydroisobenzofuran-5-yl)ethyl)-1-oxo-2,8-diazaspiro[4.5]decan-2-yl)-4-methoxynicotinonitrile], the IC50 was 0.0494 µM.

Take `COc1cc(N2CC3(CCN(C[C@H](O)c4ccc5c(c4C)COC5=O)CC3)CC2=O)ncc1C#N` [Example 59, (R)-6-(8-(2-Hydroxy-2-(4-methyl-1-oxo-1,3-dihydroisobenzofuran-5-yl)ethyl)-3-oxo-2,8-diazaspiro[4.5]decan-2-yl)-4-methoxynicotinonitrile]: the concentration for half-maximal inhibition (IC50) worked out at 0.0329 µM. For `Cc1c([C@@H](O)CN2CCC3(CC2)CCN(c2ccnc(C#N)c2)C3)ccc2c1COC2=O` [Example 60, (R)-4-(8-(2-Hydroxy-2-(4-methyl-1-oxo-1,3-dihydroisobenzofuran-5-yl)ethyl)-2,8-diazaspiro[4.5]decan-2-yl)picolinonitrile], the concentration for half-maximal inhibition (IC50) was found to be 0.0544 µM.

Consider `Cc1c([C@@H](O)CN2CCC3(CCCN(c4ccc(S(C)(=O)=O)cn4)C3)CC2)ccc2c1COC2=O` [Example 61, (R)-5-(1-hydroxy-2-(2-(5-(methylsulfonyl)pyridin-2-yl)-2,9-diazaspiro[5.5]undecan-9-yl)ethyl)-4-methylisobenzofuran-1(3H)-one], for which the half-maximal inhibitory concentration (IC50) was 0.056 µM. Under `Cc1c([C@@H](O)CN2CCC3(CC2)CCN(c2nnc(S(C)(=O)=O)s2)C3)ccc2c1COC2=O` [Example 62, 5-[(1R)-1-hydroxy-2-{2-[5-(methylsulfonyl)-1,3,4-thiadiazol-2-yl]-2,8-diazaspiro[4.5]dec-8-yl}ethyl]-4-methyl-2-benzofuran-1(3H)-one hydrochloride] stands 0.21 µM; under `CCS(=O)(=O)c1cnc(N2CCC3(CCN(C[C@H](O)c4ccc5c(c4C)COC5=O)CC3)C2)cn1` [Example 63, 5-[(1R)-2-{2-[5-(Ethylsulfonyl)pyrazin-2-yl]-2,8-diazaspiro[4.5]dec-8-yl}-1-hydroxyethyl]-4-methyl-2-benzofuran-1(3H)-one hydrochloride], 0.0833 µM. The same measure for `Cc1c([C@@H](O)CN2CCC3(CCN(c4ccc(S(C)(=O)=O)cn4)CC3)C2)ccc2c1COC2=O` [Example 64, 5-[(1R)-1-Hydroxy-2-{8-[5-(methylsulfonyl)pyridin-2-yl]-2,8-diazaspiro[4.5]dec-2-yl}ethyl]-4-methyl-2-benzofuran-1(3H)-one hydrochloride]: 0.272 µM; for `Cc1c([C@@H](O)CN2CCC3(CCN(c4cnc(S(C)(=O)=O)cn4)CC3)C2)ccc2c1COC2=O` [Example 65, 5-[(1R)-1-Hydroxy-2-{8-[5-(methylsulfonyl)pyrazin-2-yl]-2,8-diazaspiro[4.5]dec-2-yl}ethyl]-4-methyl-2-benzofuran-1(3H)-one hydrochloride]: 0.0998 µM. For `Cc1c([C@@H](O)CN2CCC3(CC2)CC(=O)N(c2ccc4c(c2)CCS4(=O)=O)C3)ccc2c1COC2=O` [Example 66, 2-(1,1-Dioxido-2,3-dihydro-1-benzothiophen-5-yl)-8-[(2R)-2-hydroxy-2-(4-methyl-1-oxo-1,3-dihydro-2-benzofuran-5-yl)ethyl]-2,8-diazaspiro[4.5]decan-3-one hydrochloride], the half-maximal inhibitory concentration (IC50) is 0.101 µM.
